Data reported in patent US7678918B2, “Intermediates for imidazonaphthyridines” (3M Innovative Properties Company, priority 1997, dated 2010).

How the values were obtained:
[1] = tested on: TNF; test: Cytokine Induction in Human Cells: tumor necrosis factor (TNF) secreted by PBMCs, ELISA; assay type: cell-based; conditions: 18 to 24 hours
Description: (§1) An in vitro human blood cell system was used to assess cytokine induction by compounds of the invention. Activity is based on the measurement of interferon and tumor necrosis factor (ℑ) (IFN and TNF, respectively) secreted into culture media as described by Testerman et. al. In “Cytokine Induction by the Immunomodulators Imiquimod and S-27609”, Journal of Leukocyte Biology, 58, 365-372 (September, 1995). Blood Cell Preparation for Culture
(§2) Whole blood is collected by venipuncture into EDTA vacutainer tubes from healthy human donors. Peripheral blood mononuclear cells (PBMCs) are separated from whole blood by Histopaque®-1077 (Sigma Chemicals, St. Louis, Mo.) density gradient centrifugation. The PBMCs are suspended at 1.5-2×10^6 cells/mL in RPMI 1640 medium containing 10% fetal bovine serum, 2 mM L-glutamine and 1% penicillin/streptomycin solution (RPMI complete). 1 mL portions of PBMC suspension are added to 24 well flat bottom sterile tissue culture plates.
(§3) The compounds are solubilized in dimethyl sulfoxide (DMSO). The DMSO concentration should not exceed a final concentration of 1% for addition to the culture wells. The compounds are generally tested in a concentration range of from 0.1 to 100 μM.
(§4) The solution of test compound is added to the wells containing 1 mL of PBMCs in media. The plates are covered with plastic lids, mixed gently and then incubated for 18 to 24 hours at 37° C. with a 5% carbon dioxide atmosphere.
(§5) Following incubation the plates are centrifuged for 5-10 minutes at 1000 rpm (˜200×g) at 4° C. The cell culture supernatant is removed with a sterile polypropylene pipet and transferred to a 2 mL sterile cryotube. Samples are maintained at −70° C. until analysis.
Tumor necrosis factor (ℑ) (TNF) concentration is determined using an ELISA kit available from Genzyme, Cambridge, Mass. The results are expressed as pg/mL.

[2] = tested on: IFN; test: Cytokine Induction in Human Cells: interferon (IFN) secreted by PBMCs, A549/encephalomyocarditis bioassay; assay type: cell-based; conditions: 18 to 24 hours
Description: as §1, §2, §3, §4, §5
Interferon is determined by bioassay using A549 human lung carcinoma cells challenged with encephalomyocarditis. The details of the bioassay method have been described by G. L. Brennan and L. H. Kronenberg in “Automated Bioassay of Interferons in Micro-test Plates”, Biotechniques, June/July 78, 1983, incorporated herein by reference. Briefly stated the method is as follows: A549 cells are incubated with samples and standard interferon dilutions at 37° C. for 24 hours. The incubated cells are then infected with an inoculum of encephalomyocarditis virus. The infected cells are incubated for an additional 24 hours at 37° C. before quantifying for viral cytopathic effect. The viral cytopathic effect is quantified by staining followed by visual scoring of the plates. Results are expressed as alpha reference units/mL based on the value obtained for NIH Human Leukocyte IFN standard.
Note: call rule not given here.

SMILES	TNF induction ([1]; Dose Concentration 0.1 μM)	TNF induction ([1]; Dose Concentration 1.0 μM)	TNF induction ([1]; Dose Concentration 10.0 μM)	TNF induction ([1]; Dose Concentration 100.0 μM)	IFN induction ([2]; Dose Concentration 0.1 μM)	IFN induction ([2]; Dose Concentration 1.0 μM)	IFN induction ([2]; Dose Concentration 10.0 μM)	IFN induction ([2]; Dose Concentration 100.0 μM)
CCCCc1nc2c(N)nc3cccnc3c2n1CCCCNC(=O)OCC [Example 58, Ethyl N-[4-(4-Amino-2-butyl-1H-imidazo[4,5-c][1,5]naphthyridin-1-yl)butyl]carbamate]	−	+	+	−	+	+	+	−
CCCCc1nc2c(N)nc3cccnc3c2n1CCCCNC(=O)C1CC1 [Example 173]	−	+	+	+	+	+	+	+
CCCCc1nc2c(N)nc3cccnc3c2n1CCNC(=O)c1ccc(F)cc1 [Example 129]		+	+	+		+	+	+
CCCCc1nc2c(N)nc3cccnc3c2n1CCNC(=O)c1cnc(C)cn1 [Example 205]	−	+	+	+	+	+	+	+
CCCCc1nc2c(N)nc3cccnc3c2n1CCCCNC(=O)OCC1c2ccccc2-c2ccccc21 [Example 57, 9H-9-Fluorenylmethyl N-[4-(4-Amino-2-butyl-1H-imidazo[4,5-c][1,5]naphthyridin-1-yl)butyl]carbamate]	−	−	+	+	−	+	+	+
CCCCc1nc2c(N)nc3cccnc3c2n1CCCCNC(=O)Cc1ccc(OC)cc1 [Example 187]	−	+	+	−	−	+	+	+
CCCCc1nc2c(N)nc3cccnc3c2n1CCNC(=O)COCc1ccccc1 [Example 121]		+	+	+		+	+	+
CCCCc1nc2c(N)nc3cccnc3c2n1CCNC(=O)c1cccnc1Cl [Example 147]	−	−	+	+	−	+	+	+
CCCCc1nc2c(N)nc3cccnc3c2n1CCCCNC(=O)COCc1ccccc1 [Example 157]	−	−	+	−	+	+	+	−
CCCCc1nc2c(N)nc3cccnc3c2n1CCNS(C)(=O)=O [Example 116, N^1-[4-(4-Amino-2-butyl-1H-imidazo[4,5-c][1,5]naphthyridin-1-yl)ethyl]methanesulfonamide]	−	+	+	+	−	+	+	+
CCCCc1nc2c(N)nc3cccnc3c2n1CCNC(=O)Cc1ccsc1 [Example 191]		−	+	+		+	+	+
CCCCc1nc2c(N)nc3cccnc3c2n1CCCCNC(=O)C1CCCC1 [Example 174]	+	+	+	−	+	+	+	+
CCCCc1nc2c(N)nc3cccnc3c2n1CCCCNC(=O)CCCCCCCCC(=O)OC [Example 158]	−	−	+	−	−	+	+	+
CCCCc1nc2c(N)nc3cccnc3c2n1CCNC(=O)CCN1C(=O)c2ccccc2C1=O [Example 211]	−	−	+	+	−	−	+	+
CCCCc1nc2c(N)nc3cccnc3c2n1CCCCNC(=O)c1ccccc1 [Example 52, N-[4-(4-Amino-2-butyl-1H-imidazo[4,5-c][1,5]naphthyridin-1-yl)butyl]benzamide]		+	+	−		+	+	−
CCCCc1nc2c(N)nc3cccnc3c2n1CCCCNC(=O)OCc1ccccc1 [Example 56, Benzyl N-[4-(4-Amino-2-butyl-1H-imidazo[4,5-c][1,5]naphthyridin-1-yl)butyl]carbamate]	−	−	+	−	−	+	+	−
CCCCc1nc2c(N)nc3cccnc3c2n1CCNC(=O)c1c(C)cc(C)cc1C [Example 143]		−	±	−		−	+	+
CCCCc1nc2c(N)nc3cccnc3c2n1CCNC(=O)c1ccc(C(=O)OC)cc1 [Example 150]	−	−	+	+	−	−	+	+
